Test results: US9067871B2, “Aminotetraline derivatives, pharmaceutical compositions containing them, and their use in therapy” (ABBVIE DEUTSCHLAND GMBH & CO KG, priority 2009, dated 2015)
Counter-ions that a name gives are not always drawn. Like-named read-outs stand apart in the source and are kept apart here.

How the values were obtained:
human GlyT1c transporter = human GlyT1c transporter (Homo sapiens (Human), UniProt P48067); experiment: Radioligand binding assay using recombinant CHO cell membranes expressing human GlyT1; settings: read-out: radioligand binding Kiapp
Excerpt: 2. Radioligand binding assays using recombinant CHO cell membranes expressing human GlyT1: […]

human GlyT1c = human GlyT1c (Homo sapiens (Human), UniProt P48067); experiment: [3H]-Glycine uptake into recombinant CHO cells expressing human GlyT1; assay type: cell-based
Method in brief: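 Recombinant CHO cells stably expressing hGlyT1c, grown 24 h to sub-confluency on scintillating plates, given inhibitor or vehicle plus 200 nM (final) [3H]-glycine in HBSS. Uptake counted continuously by solid-phase scintillation for up to 3 h; nonspecific uptake defined with 10 μM Org24598.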

[1] = human GlyT1c-expressing CHO cell membranes
[2] = hGlyT1c_5_CHO cells, 200 nM [3H]-glycine

human GlyT1c transporter, sequence (P48067 whole entry): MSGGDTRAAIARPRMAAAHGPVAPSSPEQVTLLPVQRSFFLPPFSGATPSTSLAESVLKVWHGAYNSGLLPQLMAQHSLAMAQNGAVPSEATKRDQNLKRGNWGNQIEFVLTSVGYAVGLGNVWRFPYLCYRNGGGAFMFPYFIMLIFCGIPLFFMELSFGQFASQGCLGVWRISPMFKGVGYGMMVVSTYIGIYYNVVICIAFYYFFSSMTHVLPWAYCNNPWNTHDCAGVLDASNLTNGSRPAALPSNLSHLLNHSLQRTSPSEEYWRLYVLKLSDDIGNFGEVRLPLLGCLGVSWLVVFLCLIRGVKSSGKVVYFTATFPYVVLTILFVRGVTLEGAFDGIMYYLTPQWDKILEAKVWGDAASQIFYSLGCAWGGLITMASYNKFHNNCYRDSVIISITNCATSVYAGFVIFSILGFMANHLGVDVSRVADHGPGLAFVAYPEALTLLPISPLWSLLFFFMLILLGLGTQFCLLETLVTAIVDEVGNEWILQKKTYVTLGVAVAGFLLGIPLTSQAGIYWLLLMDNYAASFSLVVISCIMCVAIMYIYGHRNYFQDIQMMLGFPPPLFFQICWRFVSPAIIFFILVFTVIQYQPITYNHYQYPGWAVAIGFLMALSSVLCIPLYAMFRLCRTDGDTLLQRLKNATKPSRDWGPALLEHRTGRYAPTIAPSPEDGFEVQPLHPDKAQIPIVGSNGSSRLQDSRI
human GlyT1c, sequence (P48067 whole entry): as above

| Ki (human GlyT1c transporter; [1]) [µM] | IC50 (human GlyT1c; [2]) [µM] | SMILES | Ki (human GlyT1c transporter) [µM] | IC50 (human GlyT1c) [µM] |
| --- | --- | --- | --- | --- |
| ≤ 10 | ≥ 100 | CCOC(=O)NC1CCc2ccc(OCCNS(=O)(=O)c3cc(C)sc3C)cc2C1Cc1cccc(Cl)c1 (centres unmarked) [Example 60, {1-(3-Chloro-benzyl)-7-[2-(2,5-dimethyl-thiophene-3-sulfonylamino)-ethoxy]-1,2,3,4-tetrahydro-naphthalen-2-yl}-carbamic acid ethyl ester] |  |  |
| ≤ 10 | ≤ 1000 | CCOC(=O)NC1CCc2ccc(OCCNS(=O)(=O)c3cnn(CC)c3)cc2C1Cc1cccc(Cl)c1 (centres unmarked) [Example 61, {1-(3-Chloro-benzyl)-7-[2-(1-ethyl-1H-pyrazole-4-sulfonylamino)-ethoxy]-1,2,3,4-tetrahydro-naphthalen-2-yl}-carbamic acid ethyl ester] |  |  |
| ≤ 10 | ≤ 1000 | CCOC(=O)NC1CCc2ccc(OCCNS(=O)(=O)c3cnn(C)c3)cc2C1Cc1ccc(Cl)cc1Cl (centres unmarked) [Example 62, {1-(2,4-Dichloro-benzyl)-7-[2-(1-methyl-1H-pyrazole-4-sulfonylamino)-ethoxy]-1,2,3,4-tetrahydro-naphthalen-2-yl}-carbamic acid ethyl ester] |  |  |
| ≤ 10 | ≥ 100 | CCOC(=O)NC1CCc2ccc(OCCNS(=O)(=O)c3cccs3)cc2C1Cc1ccc(Cl)cc1Cl (centres unmarked) [Example 63, {1-(2,4-Dichloro-benzyl)-7-[2-(thiophene-2-sulfonylamino)-ethoxy]-1,2,3,4-tetrahydronaphthalen-2-yl}-carbamic acid ethyl ester] |  |  |
| ≤ 10 | ≤ 1000 | CCOC(=O)NC1CCc2ccc(OCCNS(=O)(=O)c3ccc(C)s3)cc2C1Cc1ccc(Cl)cc1Cl (centres unmarked) [Example 64, {1-(2,4-Dichloro-benzyl)-7-[2-(5-methyl-thiophene-2-sulfonylamino)-ethoxy]-1,2,3,4-tetrahydro-naphthalen-2-yl}-carbamic acid ethyl ester] |  |  |
| ≥ 10 | ≤ 100 | CCOC(=O)NC1CCc2ccc(OCCNS(=O)(=O)CC)cc2C1Cc1cccc(Cl)c1 (centres unmarked) [Example 65, [1-(3-Chloro-benzyl)-7-(2-ethanesulfonylamino-ethoxy)-1,2,3,4-tetrahydro-naphthalen-2-yl]-carbamic acid ethyl ester] |  |  |
|  |  | CCn1cc(S(=O)(=O)NCCOc2ccc3c(c2)C(Cc2cccc(Cl)c2)C(N)CC3)cn1 (centres unmarked) [Example 66, 1-Ethyl-1H-pyrazole-4-sulfonic acid {2-[7-amino-8-(3-chloro-benzyl)-5,6,7,8-tetrahydronaphthalen-2-yloxy]-ethyl}-amide hydrochloride] | ≤ 0.1 | ≤ 1 |
| ≤ 0.1 | ≤ 1 | Cc1csc(S(=O)(=O)NCCOc2ccc3c(c2)C(Cc2cccc(Cl)c2)C(N)CC3)c1 (centres unmarked) [Example 67, 4-Methyl-thiophene-2-sulfonic acid {2-[7-amino-8-(3-chloro-benzyl)-5,6,7,8-tetrahydronaphthalen-2-yloxy]-ethyl}-amide hydrochloride] |  |  |
| ≤ 1 | ≤ 10 | Cc1ccc(S(=O)(=O)NCCOc2ccc3c(c2)C(Cc2cccc(Cl)c2)C(N)CC3)s1 (centres unmarked) [Example 68, 5-Methyl-thiophene-2-sulfonic acid {2-[7-amino-8-(3-chloro-benzyl)-5,6,7,8-tetrahydronaphthalen-2-yloxy]-ethyl}-amide hydrochloride] |  |  |
| ≤ 1 | ≤ 10 | Cc1cc(S(=O)(=O)NCCOc2ccc3c(c2)C(Cc2cccc(Cl)c2)C(N)CC3)c(C)s1 (centres unmarked) [Example 69, 2,5-Dimethyl-thiophene-3-sulfonic acid {2-[7-amino-8-(3-chloro-benzyl)-5,6,7,8-tetrahydronaphthalen-2-yloxy]-ethyl}-amide hydrochloride] |  |  |
|  |  | CCS(=O)(=O)NCCOc1ccc2c(c1)C(Cc1cccc(Cl)c1)C(N)CC2 (centres unmarked) [Example 70, Ethanesulfonic acid {2-[7-amino-8-(3-chloro-benzyl)-5,6,7,8-tetrahydro-naphthalen-2-yloxy]-ethyl}-amide hydrochloride] | ≤ 0.1 | ≤ 1 |
| ≤ 0.01 | ≤ 0.1 | Cn1cc(S(=O)(=O)NCCOc2ccc3c(c2)C(Cc2ccc(Cl)cc2Cl)C(N)CC3)cn1 (centres unmarked) [Example 71, 1-Methyl-1H-pyrazole-4-sulfonic acid {2-[7-amino-8-(2,4-dichloro-benzyl)-5,6,7,8-tetrahydro-naphthalen-2-yloxy]-ethyl}-amide hydrochloride] |  |  |
| ≤ 10 | ≤ 10 | NC1CCc2ccc(OCCNS(=O)(=O)c3cccs3)cc2C1Cc1ccc(Cl)cc1Cl (centres unmarked) [Example 72, Thiophene-2-sulfonic acid {2-[7-amino-8-(2,4-dichloro-benzyl)-5,6,7,8-tetrahydronaphthalen-2-yloxy]-ethyl}-amide hydrochloride] |  |  |
| ≤ 1 | ≤ 10 | Cc1ccc(S(=O)(=O)NCCOc2ccc3c(c2)C(Cc2ccc(Cl)cc2Cl)C(N)CC3)s1 (centres unmarked) [Example 73, 5-Methyl-thiophene-2-sulfonic acid {2-[7-amino-8-(2,4-dichloro-benzyl)-5,6,7,8-tetrahydronaphthalen-2-yloxy]-ethyl}-amide hydrochloride] |  |  |
| ≥ 10 | ≤ 100 | CCCS(=O)(=O)NCCOc1ccc2c(c1)C(Cc1ccc(Cl)cc1Cl)C(NC(=O)OCC)CC2 (centres unmarked) [Example 74, {1-(2,4-Dichloro-benzyl)-7-[2-(propane-1-sulfonylamino)-ethoxy]-1,2,3,4-tetrahydronaphthalen-2-yl}-carbamic acid ethyl ester] |  |  |
| ≤ 1 | ≤ 10 | CCCS(=O)(=O)NCCOc1ccc2c(c1)C(Cc1ccc(Cl)cc1Cl)C(N)CC2 (centres unmarked) [Example 75, Propane-1-sulfonic acid {2-[7-amino-8-(2,4-dichloro-benzyl)-5,6,7,8-tetrahydronaphthalen-2-yloxy]-ethyl}-amide hydrochloride] |  |  |
| ≤ 100 | ≤ 1000 | CCCS(=O)(=O)N(C)CCOc1ccc2c(c1)C(Cc1ccc(Cl)cc1)C(NC(=O)OCC)CC2 (centres unmarked) [Example 76, (1-(4-Chloro-benzyl)-7-{2-[methyl-(propane-1-sulfonyl)-amino]-ethoxy}-1,2,3,4-tetrahydronaphthalen-2-yl)-carbamic acid ethyl ester] |  |  |
| ≤ 0.1 | ≤ 1 | CCCS(=O)(=O)N(C)CCOc1ccc2c(c1)C(Cc1ccc(Cl)cc1)C(N)CC2 (centres unmarked) [Example 77, Propane-1-sulfonic acid {2-[7-amino-8-(4-chloro-benzyl)-5,6,7,8-tetrahydro-naphthalen-2-yloxy]-ethyl}-methyl-amide hydrochloride] |  |  |
| ≤ 10 | ≤ 10 | CCCS(=O)(=O)N(C)CCOc1ccc2c(c1)C(Cc1cccc(Cl)c1)C(NC(=O)OCC)CC2 (centres unmarked) [Example 78, (1-(3-Chloro-benzyl)-7-{2-[methyl-(propane-1-sulfonyl)-amino]-ethoxy}-1,2,3,4-tetrahydronaphthalen-2-yl)-carbamic acid ethyl ester] |  |  |
| ≤ 0.1 | ≤ 1 | CCCS(=O)(=O)N(C)CCOc1ccc2c(c1)C(Cc1cccc(Cl)c1)C(N)CC2 (centres unmarked) [Example 79, Propane-1-sulfonic acid {2-[7-amino-8-(3-chloro-benzyl)-5,6,7,8-tetrahydronaphthalen-2-yloxy]-ethyl}-methyl-amide hydrochloride] |  |  |
| ≤ 1 | ≤ 1 | CCOC(=O)NC1CCc2ccc(OCCNS(=O)(=O)c3cn(C)cn3)cc2C1Cc1cccc(Cl)c1 (centres unmarked) [Example 80, {1-(3-Chloro-benzyl)-7-[2-(1-methyl-1H-imidazole-4-sulfonylamino)-ethoxy]-1,2,3,4-tetrahydro-naphthalen-2-yl}-carbamic acid ethyl ester] |  |  |
| ≤ 10 | ≥ 1000 | CCOC(=O)NC1CCc2ccc(OCCNS(=O)(=O)c3cnn(C(F)F)c3)cc2C1Cc1cccc(Cl)c1 (centres unmarked) [Example 81, {1-(3-Chloro-benzyl)-7-[2-(1-difluoromethyl-1H-pyrazole-4-sulfonylamino)-ethoxy]-1,2,3,4-tetrahydro-naphthalen-2-yl}-carbamic acid ethyl ester] |  |  |
| ≤ 0.1 | ≤ 1 | CCCS(=O)(=O)N1CCC[C@@H]1COc1ccc2c(c1)C(Cc1cccc(Cl)c1)C(N)CC2 (stereo partly drawn) [Example 82, 1-(3-Chloro-benzyl)-7-[(R)-1-(propane-1-sulfonyl)-pyrrolidin-2-ylmethoxy]-1,2,3,4-tetrahydro-naphthalen-2-ylamine hydrochloride] |  |  |
| ≤ 1 | ≤ 10 | CCCS(=O)(=O)N1CC(Oc2ccc3c(c2)C(Cc2cccc(Cl)c2)C(N)CC3)C1 (centres unmarked) [Example 83, 1-(3-Chloro-benzyl)-7-[1-(propane-1-sulfonyl)-azetidin-3-yloxy]-1,2,3,4-tetrahydronaphthalen-2-ylamine hydrochloride] |  |  |
|  |  | CCS(=O)(=O)CCCOc1ccc2c(c1)C(Cc1cccc(Cl)c1)C(N)CC2 (centres unmarked) [Example 84, 1-(3-Chloro-benzyl)-7-(3-ethanesulfonyl-propoxy)-1,2,3,4-tetrahydro-naphthalen-2-ylamine hydrochloride] | ≤ 10 | ≤ 10 |
